{"source": "patent US6355799B1", "about": "“Substituted benzene compounds, process for their preparation, and herbicidal and defoliant compositions containing them” (ISK Americas Incorporated, priority 1997, dated 2002)", "assay_type_in_all_cases": "in vivo", "key": {"[1]": {"test_system": "field corn (Zea mays L., var. Dekalb 535, CORN)", "test": "Pre-emerge test, crop safety", "conditions": "pre-emerge, rated 14 days after application, 0 = no damage, 100 = complete death", "outline": "(§1)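 Rating: 0–100 visual injury, 14 DAA. Application: acetone, 187 l/ha, 15–1000 g ai/ha, flat-fan track sprayer with nozzle 40–45 cm above soil or canopy. Post-emerge runs used 0.25% v/v surfactant on 2–3 leaf plants.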"}, "[2]": {"test_system": "upland rice (Oryza sp., var. Tebonnet, RICE)", "test": "Pre-emerge test, crop safety", "conditions": "pre-emerge, rated 14 days after application, 0 = no damage, 100 = complete death", "outline": "as §1"}, "[3]": {"test_system": "green foxtail (Setaria viridis, SETVI)", "test": "Post-emerge test, greenhouse herbicide activity screening", "conditions": "phytotoxicity rating 0-100 (0 no damage, 100 complete death), 14 days after application", "outline": "(§2)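 Visual ratings on a 0-100 scale (0 no damage, 100 all plants dead) were taken at 14 days after treatment. Rates of 15-1000 g ai/ha in acetone, 187 l/ha, were sprayed onto soil one day after planting (pre-emerge) or onto 2-3 leaf plants with 0.25% v/v surfactant (post-emerge).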"}, "[4]": {"test_system": "lambsquarters (Chenopodium album, CHEAL)", "test": "Post-emerge test, greenhouse herbicide activity screening", "conditions": "phytotoxicity rating 0-100 (0 no damage, 100 complete death), 14 days after application", "outline": "as §2"}, "[5]": {"test_system": "velvetleaf (Abutilon theophrasti, ABUTH)", "test": "Post-emerge test, greenhouse herbicide activity screening", "conditions": "phytotoxicity rating 0-100 (0 no damage, 100 complete death), 14 days after application", "outline": "as §2"}, "[6]": {"test_system": "barnyardgrass (Echinochloa crus-galli, ECHCG)", "test": "Post-emerge test, greenhouse herbicide activity screening", "conditions": "phytotoxicity rating 0-100 (0 no damage, 100 complete death), 14 days after application", "outline": "as §2"}, "[7]": {"test_system": "common ragweed (Ambrosia artemisizfolia L., AMBEL)", "test": "Post-emerge test, greenhouse herbicide activity screening", "conditions": "phytotoxicity rating 0-100 (0 no damage, 100 complete death), 14 days after application", "outline": "as §2"}, "[8]": {"test_system": "sicklepod (Cassia obtusifolia, CASOB)", "test": "Post-emerge test, greenhouse herbicide activity screening", "conditions": "phytotoxicity rating 0-100 (0 no damage, 100 complete death), 14 days after application", "outline": "as §2"}, "[9]": {"test_system": "redroot pigweed (Amaranthus retroflexus, AMARE)", "test": "Post-emerge test, greenhouse herbicide activity screening", "conditions": "phytotoxicity rating 0-100 (0 no damage, 100 complete death), 14 days after application", "outline": "as §2"}, "[10]": {"test_system": "large crabgrass (Digitaria sanguinalis, DIGSA)", "test": "Post-emerge test, greenhouse herbicide activity screening", "conditions": "phytotoxicity rating 0-100 (0 no damage, 100 complete death), 14 days after application", "outline": "as §2"}, "[11]": {"test_system": "ivyleaf morningglory (Ipomoea hederacea, IPOHE)", "test": "Post-emerge test, greenhouse herbicide activity screening", "conditions": "phytotoxicity rating 0-100 (0 no damage, 100 complete death), 14 days after application", "outline": "as §2"}, "[12]": {"test_system": "field corn (Zea mays L., var. Dekalb 535, CORN)", "test": "Post-emerge test, crop safety", "conditions": "phytotoxicity rating 0-100 (0 no damage, 100 complete death), 14 days after application", "outline": "as §2"}, "[13]": {"test_system": "upland rice (Oryza sp., var. Tebonnet, RICE)", "test": "Post-emerge test, crop safety", "conditions": "phytotoxicity rating 0-100 (0 no damage, 100 complete death), 14 days after application", "outline": "as §2"}, "[14]": {"test_system": "redroot pigweed (Amaranthus retroflexus, AMARE)", "test": "Pre-emerge test, greenhouse herbicide activity screening", "conditions": "pre-emerge, rated 14 days after application, 0 = no damage, 100 = complete death", "outline": "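Compounds in acetone were track-sprayed at 187 l/ha, 15–1000 g ai/ha, onto sandy loam pots. Pre-emerge seeds were sown one day before spraying, with surface watering afterwards. Post-emerge plants were at the 2–3 leaf stage and sprayed with 0.25% v/v non-ionic surfactant. Injury was rated 0–100 at 14 days.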"}, "[15]": {"test_system": "green foxtail (Setaria viridis, SETVI)", "test": "Pre-emerge test, greenhouse herbicide activity screening", "conditions": "pre-emerge, rated 14 days after application, 0 = no damage, 100 = complete death", "outline": "as §2"}, "[16]": {"test_system": "lambsquarters (Chenopodium album, CHEAL)", "test": "Pre-emerge test, greenhouse herbicide activity screening", "conditions": "pre-emerge, rated 14 days after application, 0 = no damage, 100 = complete death", "outline": "as §2"}, "[17]": {"test_system": "velvetleaf (Abutilon theophrasti, ABUTH)", "test": "Pre-emerge test, greenhouse herbicide activity screening", "conditions": "pre-emerge, rated 14 days after application, 0 = no damage, 100 = complete death", "outline": "as §2"}, "[18]": {"test_system": "barnyardgrass (Echinochloa crus-galli, ECHCG)", "test": "Pre-emerge test, greenhouse herbicide activity screening", "conditions": "pre-emerge, rated 14 days after application, 0 = no damage, 100 = complete death", "outline": "as §2"}, "[19]": {"test_system": "common ragweed (Ambrosia artemisizfolia L., AMBEL)", "test": "Pre-emerge test, greenhouse herbicide activity screening", "conditions": "pre-emerge, rated 14 days after application, 0 = no damage, 100 = complete death", "outline": "as §2"}, "[20]": {"test_system": "sicklepod (Cassia obtusifolia, CASOB)", "test": "Pre-emerge test, greenhouse herbicide activity screening", "conditions": "pre-emerge, rated 14 days after application, 0 = no damage, 100 = complete death", "outline": "as §2"}, "[21]": {"test_system": "johnsongrass (Sorghum halepense, SORHA)", "test": "Pre-emerge test, greenhouse herbicide activity screening", "conditions": "pre-emerge, rated 14 days after application, 0 = no damage, 100 = complete death", "outline": "as §2"}, "[22]": {"test_system": "large crabgrass (Digitaria sanguinalis, DIGSA)", "test": "Pre-emerge test, greenhouse herbicide activity screening", "conditions": "pre-emerge, rated 14 days after application, 0 = no damage, 100 = complete death", "outline": "as §2"}, "[23]": {"test_system": "ivyleaf morningglory (Ipomoea hederacea, IPOHE)", "test": "Pre-emerge test, greenhouse herbicide activity screening", "conditions": "pre-emerge, rated 14 days after application, 0 = no damage, 100 = complete death", "outline": "as §2"}}, "data": [{"smiles": "CCOc1c(Cl)cc(F)c(-n2c(=O)cc(C(F)(F)F)n(C)c2=O)c1N", "note": "[Compound 1-61]", "values": [{"measurement": "Pre-emerge crop damage CORN (phytotoxicity rating, scale 0-100)", "setting": "[1]; 63 g ai/ha", "value": 60}, {"measurement": "Pre-emerge crop damage CORN (phytotoxicity rating, scale 0-100)", "setting": "[1]; 250 g ai/ha", "value": 95}, {"measurement": "Pre-emerge crop damage RICE (phytotoxicity rating, scale 0-100)", "setting": "[2]; 63 g ai/ha", "value": 50}, {"measurement": "Pre-emerge crop damage RICE (phytotoxicity rating, scale 0-100)", "setting": "[2]; 250 g ai/ha", "value": 95}, {"measurement": "Post-emerge Herbicidal Activity SETVI", "setting": "[3]; 63 g ai/ha", "value": 10}, {"measurement": "Post-emerge Herbicidal Activity SETVI", "setting": "[3]; 250 g ai/ha", "value": 30}, {"measurement": "Post-emerge Herbicidal Activity CHEAL", "setting": "[4]; 63 g ai/ha", "value": 30}, {"measurement": "Post-emerge Herbicidal Activity CHEAL", "setting": "[4]; 250 g ai/ha", "value": 70}, {"measurement": "Post-emerge Herbicidal Activity ABUTH", "setting": "[5]; 63 g ai/ha", "value": 70}, {"measurement": "Post-emerge Herbicidal Activity ABUTH", "setting": "[5]; 250 g ai/ha", "value": 100}, {"measurement": "Post-emerge Herbicidal Activity ECHCG", "setting": "[6]; 63 g ai/ha", "value": 0}, {"measurement": "Post-emerge Herbicidal Activity ECHCG", "setting": "[6]; 250 g ai/ha", "value": 10}, {"measurement": "Post-emerge Herbicidal Activity AMBEL", "setting": "[7]; 63 g ai/ha", "value": 70}, {"measurement": "Post-emerge Herbicidal Activity AMBEL", "setting": "[7]; 250 g ai/ha", "value": 85}, {"measurement": "Post-emerge Herbicidal Activity CASOB", "setting": "[8]; 63 g ai/ha", "value": 60}, {"measurement": "Post-emerge Herbicidal Activity CASOB", "setting": "[8]; 250 g ai/ha", "value": 70}, {"measurement": "Post-emerge Herbicidal Activity AMARE", "setting": "[9]; 63 g ai/ha", "value": 50}, {"measurement": "Post-emerge Herbicidal Activity AMARE", "setting": "[9]; 250 g ai/ha", "value": 70}, {"measurement": "Post-emerge Herbicidal Activity DIGSA", "setting": "[10]; 63 g ai/ha", "value": 10}, {"measurement": "Post-emerge Herbicidal Activity DIGSA", "setting": "[10]; 250 g ai/ha", "value": 30}, {"measurement": "Post-emerge Herbicidal Activity IPOHE", "setting": "[11]; 63 g ai/ha", "value": 100}, {"measurement": "Post-emerge Herbicidal Activity IPOHE", "setting": "[11]; 250 g ai/ha", "value": 100}, {"measurement": "Post-emerge Herbicidal Activity CORN (crop damage)", "setting": "[12]; 63 g ai/ha", "value": 10}, {"measurement": "Post-emerge Herbicidal Activity CORN (crop damage)", "setting": "[12]; 250 g ai/ha", "value": 30}, {"measurement": "Post-emerge Herbicidal Activity RICE (crop damage)", "setting": "[13]; 63 g ai/ha", "value": 10}, {"measurement": "Post-emerge Herbicidal Activity RICE (crop damage)", "setting": "[13]; 250 g ai/ha", "value": 35}, {"measurement": "Pre-emerge Herbicidal Activity AMARE (phytotoxicity rating, scale 0-100)", "setting": "[14]; 63 g ai/ha", "value": 95}, {"measurement": "Pre-emerge Herbicidal Activity AMARE (phytotoxicity rating, scale 0-100)", "setting": "[14]; 250 g ai/ha", "value": 100}, {"measurement": "Pre-emerge Herbicidal Activity SETVI (phytotoxicity rating, scale 0-100)", "setting": "[15]; 63 g ai/ha", "value": 95}, {"measurement": "Pre-emerge Herbicidal Activity SETVI (phytotoxicity rating, scale 0-100)", "setting": "[15]; 250 g ai/ha", "value": 100}, {"measurement": "Pre-emerge Herbicidal Activity CHEAL (phytotoxicity rating, scale 0-100)", "setting": "[16]; 63 g ai/ha", "value": 100}, {"measurement": "Pre-emerge Herbicidal Activity CHEAL (phytotoxicity rating, scale 0-100)", "setting": "[16]; 250 g ai/ha", "value": 100}, {"measurement": "Pre-emerge Herbicidal Activity ABUTH (phytotoxicity rating, scale 0-100)", "setting": "[17]; 63 g ai/ha", "value": 100}, {"measurement": "Pre-emerge Herbicidal Activity ABUTH (phytotoxicity rating, scale 0-100)", "setting": "[17]; 250 g ai/ha", "value": 100}, {"measurement": "Pre-emerge Herbicidal Activity ECHCG (phytotoxicity rating, scale 0-100)", "setting": "[18]; 63 g ai/ha", "value": 75}, {"measurement": "Pre-emerge Herbicidal Activity ECHCG (phytotoxicity rating, scale 0-100)", "setting": "[18]; 250 g ai/ha", "value": 99}, {"measurement": "Pre-emerge Herbicidal Activity AMBEL (phytotoxicity rating, scale 0-100)", "setting": "[19]; 63 g ai/ha", "value": 60}, {"measurement": "Pre-emerge Herbicidal Activity AMBEL (phytotoxicity rating, scale 0-100)", "setting": "[19]; 250 g ai/ha", "value": 100}, {"measurement": "Pre-emerge Herbicidal Activity CASOB (phytotoxicity rating, scale 0-100)", "setting": "[20]; 63 g ai/ha", "value": 30}, {"measurement": "Pre-emerge Herbicidal Activity CASOB (phytotoxicity rating, scale 0-100)", "setting": "[20]; 250 g ai/ha", "value": 80}, {"measurement": "Pre-emerge Herbicidal Activity SORHA (phytotoxicity rating, scale 0-100)", "setting": "[21]; 63 g ai/ha", "value": 70}, {"measurement": "Pre-emerge Herbicidal Activity SORHA (phytotoxicity rating, scale 0-100)", "setting": "[21]; 250 g ai/ha", "value": 99}, {"measurement": "Pre-emerge Herbicidal Activity DIGSA (phytotoxicity rating, scale 0-100)", "setting": "[22]; 63 g ai/ha", "value": 40}, {"measurement": "Pre-emerge Herbicidal Activity DIGSA (phytotoxicity rating, scale 0-100)", "setting": "[22]; 250 g ai/ha", "value": 99}, {"measurement": "Pre-emerge Herbicidal Activity IPOHE (phytotoxicity rating, scale 0-100)", "setting": "[23]; 63 g ai/ha", "value": 60}, {"measurement": "Pre-emerge Herbicidal Activity IPOHE (phytotoxicity rating, scale 0-100)", "setting": "[23]; 250 g ai/ha", "value": 90}]}]}
